Data published in PubChem BioAssay (NCI).
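Briefly, cells in 96-well plates were exposed to five compound concentrations for 48 h, and endpoints were estimated by linear interpolation. At the TGI there is no net growth.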

Legend:
Test in all cases: inhibition of tumour cell growth, NCI panel, 48 h
HL-60(TB) leukemia = tested on: HL-60(TB) leukemia
SK-MEL-2 melanoma = tested on: SK-MEL-2 melanoma
SK-OV-3 ovarian = tested on: SK-OV-3 ovarian
SF-268 CNS = tested on: SF-268 CNS
CCRF-CEM leukemia = tested on: CCRF-CEM leukemia
SNB-75 CNS = tested on: SNB-75 CNS
HT29 colon = tested on: HT29 colon
UO-31 renal = tested on: UO-31 renal
A549 NSCLC = tested on: A549 NSCLC
RXF 393 renal = tested on: RXF 393 renal
SK-MEL-28 melanoma = tested on: SK-MEL-28 melanoma
ACHN renal = tested on: ACHN renal
U251 CNS = tested on: U251 CNS
HCT-15 colon = tested on: HCT-15 colon
K-562 leukemia = tested on: K-562 leukemia
MDA-MB-435 = tested on: MDA-MB-435
SF-539 CNS = tested on: SF-539 CNS
UACC-257 melanoma = tested on: UACC-257 melanoma
SR leukemia = tested on: SR leukemia

O=C(/C=C/c1ccccc1)CSc1nc2ccc(I)cc2c(=O)n1Cc1ccccc1
TGI (HL-60(TB) leukemia): 57.2 µM
TGI (SK-MEL-2 melanoma): 99 µM
TGI (SK-OV-3 ovarian): > 100 µM
TGI (SF-268 CNS): 51.9 µM
TGI (CCRF-CEM leukemia): > 59.2 µM
TGI (SNB-75 CNS): > 95.7 µM
TGI (HT29 colon): > 100 µM
TGI (UO-31 renal): 0.553 µM
TGI (A549 NSCLC): > 100 µM
TGI (RXF 393 renal): > 94.5 µM
TGI (SK-MEL-28 melanoma): > 100 µM
TGI (ACHN renal): > 100 µM
TGI (U251 CNS): > 100 µM
TGI (HCT-15 colon): > 100 µM
TGI (K-562 leukemia): > 100 µM
TGI (MDA-MB-435): > 100 µM
TGI (SF-539 CNS): > 100 µM
TGI (UACC-257 melanoma): > 100 µM
TGI (SR leukemia): 33.3 µM

Nc1nc(N)c2[nH]cnc2n1 (tested in a mixture with another compound)
TGI (HL-60(TB) leukemia): > 100 µM
TGI (SK-MEL-2 melanoma): 77.5 µM
TGI (SK-OV-3 ovarian): > 100 µM
TGI (SF-268 CNS): > 100 µM
TGI (CCRF-CEM leukemia): > 100 µM
TGI (SNB-75 CNS): > 100 µM
TGI (HT29 colon): > 100 µM
TGI (UO-31 renal): 58.4 µM
TGI (A549 NSCLC): 47.4 µM
TGI (RXF 393 renal): 80.6 µM
TGI (SK-MEL-28 melanoma): > 100 µM
TGI (ACHN renal): 48.6 µM
TGI (U251 CNS): > 100 µM
TGI (HCT-15 colon): > 100 µM
TGI (K-562 leukemia): > 100 µM
TGI (MDA-MB-435): 77.5 µM
TGI (SF-539 CNS): > 100 µM
TGI (UACC-257 melanoma): 55.2 µM
TGI (SR leukemia): > 100 µM

COC(C)(C)CCc1[nH]c2ccccc2c1CC(=O)NCCc1cncn1C
TGI (HL-60(TB) leukemia): > 100 µM
TGI (SK-MEL-2 melanoma): > 100 µM
TGI (SK-OV-3 ovarian): > 100 µM
TGI (SF-268 CNS): > 100 µM
TGI (CCRF-CEM leukemia): > 100 µM
TGI (SNB-75 CNS): > 100 µM
TGI (HT29 colon): > 100 µM
TGI (UO-31 renal): > 100 µM
TGI (A549 NSCLC): > 100 µM
TGI (RXF 393 renal): > 100 µM
TGI (SK-MEL-28 melanoma): > 100 µM
TGI (ACHN renal): > 100 µM
TGI (U251 CNS): > 100 µM
TGI (HCT-15 colon): > 100 µM
TGI (K-562 leukemia): > 100 µM
TGI (MDA-MB-435): > 100 µM
TGI (SF-539 CNS): > 100 µM
TGI (UACC-257 melanoma): > 100 µM
TGI (SR leukemia): > 100 µM

O=C1OCC/C1=C/c1ccc(N=Nc2c(O)ccc3ccccc23)cc1
TGI (HL-60(TB) leukemia): 57.1 µM
TGI (SK-MEL-2 melanoma): 55.2 µM
TGI (SK-OV-3 ovarian): 55.3 µM
TGI (SF-268 CNS): 44.7 µM
TGI (CCRF-CEM leukemia): 53.5 µM
TGI (SNB-75 CNS): 49.2 µM
TGI (HT29 colon): 35 µM
TGI (UO-31 renal): 37.3 µM
TGI (A549 NSCLC): 44.7 µM
TGI (RXF 393 renal): 36.8 µM
TGI (SK-MEL-28 melanoma): 38.4 µM
TGI (ACHN renal): 31.8 µM
TGI (U251 CNS): 39.2 µM
TGI (HCT-15 colon): 60.7 µM
TGI (K-562 leukemia): > 100 µM
TGI (MDA-MB-435): 56.5 µM
TGI (SF-539 CNS): 36.6 µM
TGI (UACC-257 melanoma): 40.3 µM
TGI (SR leukemia): 37.5 µM

Cc1ccc(S(=O)(=O)n2c3c(c4ccccc42)CCN2CCC(Br)C[C@@H]32)cc1 (some centres undefined)
TGI (HL-60(TB) leukemia): 17.4 µM
TGI (SK-MEL-2 melanoma): 31.7 µM
TGI (SK-OV-3 ovarian): 31.9 µM
TGI (SF-268 CNS): 30.8 µM
TGI (CCRF-CEM leukemia): 35.2 µM
TGI (SNB-75 CNS): 25.4 µM
TGI (HT29 colon): 26.3 µM
TGI (UO-31 renal): 24.2 µM
TGI (A549 NSCLC): 31.4 µM
TGI (RXF 393 renal): 26.1 µM
TGI (SK-MEL-28 melanoma): 24.5 µM
TGI (ACHN renal): 34.8 µM
TGI (U251 CNS): 24.9 µM
TGI (HCT-15 colon): 24.4 µM
TGI (K-562 leukemia): 18.6 µM
TGI (MDA-MB-435): 14.4 µM
TGI (SF-539 CNS): 31.5 µM
TGI (UACC-257 melanoma): 21.1 µM
TGI (SR leukemia): 19.2 µM

O=c1[nH]c(-c2ccccc2)nc2c1sc1nc3ccccc3n12
TGI (HL-60(TB) leukemia): > 100 µM
TGI (SK-MEL-2 melanoma): > 100 µM
TGI (SK-OV-3 ovarian): > 100 µM
TGI (SF-268 CNS): > 100 µM
TGI (CCRF-CEM leukemia): > 100 µM
TGI (SNB-75 CNS): > 100 µM
TGI (HT29 colon): > 100 µM
TGI (UO-31 renal): > 100 µM
TGI (A549 NSCLC): > 100 µM
TGI (RXF 393 renal): > 100 µM
TGI (SK-MEL-28 melanoma): > 100 µM
TGI (ACHN renal): > 100 µM
TGI (U251 CNS): > 100 µM
TGI (HCT-15 colon): > 100 µM
TGI (K-562 leukemia): > 100 µM
TGI (MDA-MB-435): > 100 µM
TGI (SF-539 CNS): > 100 µM
TGI (UACC-257 melanoma): > 100 µM
TGI (SR leukemia): > 100 µM
